Activity calls are given as the source filed them. The rule behind the calls is not given here.
Tests used:
[1] = Inhibition of calcineurin phosphatase activity (unknown origin); parameters: species or system Homo sapiens
[2] = Inhibition of calcineurin phosphatase activity in human Jurkat cells by Western blot analysis; type: cell-based
Candida albicans [3] = assay: Reduction in Candida albicans SC5314 adhesion to epithelium expressing wild-type SAP9/10 at 20 uM; type: functional, organism-based
Candida albicans [4] = assay: Inhibition of calcineurin catalytic activity in Candida albicans at 5 uM
[5] = Toxicity in Galleria mellonella infected with Candida albicans harboring cnb1delta/CNB1 assessed as formation of nodules at 0.64 microg/mg infected with fungi followed by compound treatment for 1 hr by hematoxylin and eosin staining based analysis; settings: dose 0.64 µg/mg
Vero [6] = assay: Inhibition of calcineurin in Candida albicans harboring sap9/10delta mutant assessed as change in CNB1 expression measured during invasion of African green monkey Vero cells at 5 uM after 8 hrs by RT-qPCR analysis relative to control
Candida albicans [7] = assay: Induction of necrosis in Candida albicans by flow cytometry analysis; type: functional
Vero [8] = assay: Inhibition of calcineurin in Candida albicans harboring sap9delta mutant assessed as change in CNB1 expression measured during invasion of African green monkey Vero cells at 5 uM after 18 hrs by RT-qPCR analysis (reference value: -4.39)
Candida albicans [9] = assay: Reduction in Candida albicans SC5314 adhesion to epithelium expressing wild-type SAP9/10 at 5 uM; type: functional, organism-based
Vero [10] = assay: Inhibition of calcineurin in Candida albicans harboring sap9/10delta mutant assessed as change in CNB1 expression measured during invasion of African green monkey Vero cells at 5 uM after 18 hrs by RT-qPCR analysis (reference value: -1.67)
Candida albicans [11] = assay: Induction of apoptosis in Candida albicans harboring cnb1delta mutant at 20 uM; type: functional, organism-based
[12] = Toxicity in Galleria mellonella infected with Candida albicans harboring cnb1delta/CNB1 assessed as effect on haemocyte aggregation at 0.64 microg/mg pre-treated with compound for 1 hr followed by fungal infection by hematoxylin and eosin staining based analysis
[13] = Toxicity in Galleria mellonella infected with Candida albicans harboring cnb1delta/CNB1 assessed as effect on melanization at 0.64 microg/mg pre-treated with compound for 1 hr followed by fungal infection by hematoxylin and eosin staining based analysis; settings: dose 0.64 µg/mg
Vero [14] = assay: Inhibition of calcineurin in Candida albicans CAI4 assessed as change in CNB1 expression measured during invasion of African green monkey Vero cells at 5 uM after 18 hrs by RT-qPCR analysis (reference value: -3.66); type: cell-based
Candida albicans [15] = assay: Induction of apoptosis in wild type Candida albicans SC5314 at 20 uM; type: functional
[16] = Toxicity in Galleria mellonella infected with Candida albicans CAI4 assessed as haemocyte aggregation in tracheal walls at 0.64 microg/mg infected with fungi followed by compound treatment for 1 hr by hematoxylin and eosin staining based analysis; settings: dose 0.64 µg/mg
Candida albicans [17] = assay: Reduction in Candida albicans adhesion to epithelium expressing SAP9/10 mutant relative to control; type: functional; parameters: scale not given: the % may be the effect or the level left
Candida albicans [18] = assay: Induction of apoptosis in Candida albicans at sub-MIC; type: functional, organism-based
Candida albicans [19] = assay: Antibiofilm activity against Candida albicans at 5 to 20 uM; type: functional, organism-based; settings: dose microM 5-20
Candida albicans [20] = assay: Antifungal activity against Candida albicans harboring cnb1delta/CNB1 mutant infected in Galleria mellonella larvae assessed as increase in larvae survival at 0.64 ug/mg measured within 5 days; type: functional, organism-based; settings: dose 0.64 µg/mg, time 5.0 day
Candida albicans [21] = assay: Induction of cell membrane permeabilization in Candida albicans by flow cytometry analysis; type: functional, organism-based
Candida albicans [22] = assay: Antifungal activity against Candida albicans CAI4 infected in Galleria mellonella larvae assessed as increase in larvae survival at 0.64 ug/mg measured within 5 days; type: functional, organism-based; settings: time 5.0 day
Candida albicans [23] = assay: Decrease in chitin level in Candida albicans harboring cnb1delta/CNB1 mutant by measuring staining index at 20 uM after 18 hrs by calcofluor White staining based flow cytometry analysis; type: functional

With C=CC[C@@H]1/C=C(\C)C[C@H](C)C[C@H](OC)[C@H]2O[C@@](O)(C(=O)C(=O)N3CCCC[C@H]3C(=O)O[C@H](/C(C)=C/[C@@H]3CC[C@@H](O)[C@H](OC)C3)[C@H](C)[C@@H](O)CC1=O)[C@H](C)C[C@@H]2OC [TACROLIMUS ANHYDROUS] the IC50 [1] was 0.4 nM and the IC50 [2] was 2 nM.

For CC(Cn1cnc2c1c(=O)n(C)c(=O)n2C)OCc1cn(CCCn2nc3c(Br)c(Br)c(Br)c(Br)c3n2)nn1 (stereo not drawn), the Activity (Candida albicans [3]) was “Active”, the inhibition (Candida albicans [4]) was “Active” and the Activity [5] was “Non-Toxic”. The fold change (FC) (Vero [6]) was -2.38, the Activity (Candida albicans [7]) was “Dose-dependent effect” and the fold change (FC) (Vero [8]) was 0.24. For the same compound, the Activity (Candida albicans [9]) was “inactive”, the fold change (FC) (Vero [10]) was -4.52 and the Activity (Candida albicans [11]) was “Active”. For the same compound, the Activity [12] was “Non-Toxic”, the Activity [13] was “Non-Toxic” and the fold change (FC) (Vero [14]) was -2.98. For the same compound, the Activity (Candida albicans [15]) was “Active”, the Activity [16] was “Toxic” and the Activity (Candida albicans [17]) was 100%. The Activity (Candida albicans [18]) was “Active”, the Activity (Candida albicans [19]) was “Active” and the Activity (Candida albicans [20]) was “Active”. The Activity (Candida albicans [21]) was “Dose-dependent effect”, the Activity (Candida albicans [22]) was “Active” and the Activity (Candida albicans [23]) was “Active”.
